Data: patent publication US5519038A, “N,N'-bis(alkoxyalkyl)-pyridine-2,4-dicarboxylic acid diamines” (Hoechst Aktiengesellschaft, priority 1989, dated 1996)
Blank lines part the entries; values can stand above or below the compound they belong to.

Assays:
[1] = system: liver hydroxyproline (proline hydroxylase and lysine hydroxylase); assay: Pharmacological activity: inhibition of liver hydroxyproline synthesis in CCl4-treated rats; format: in vivo; conditions: versus CCl4 control
[2] = system: serum 7s-(IV)-collagen (proline hydroxylase and lysine hydroxylase); assay: Pharmacological activity: inhibition of serum 7s-(IV)-collagen synthesis in CCl4-treated rats; format: in vivo; conditions: versus CCl4 control
[3] = Enteral absorbability: serum levels after intragastral administration; format: in vivo, female Wistar rats; set-up: unit not given here; conditions: 50 mg/kg perorally (intragastral), mean of 4 measurements
Experimental: The absorbability was investigated on Wistar rats to which the compounds according to the invention were administered intragastrally. The serum level dropped in the first hours after administration of the substance, and after about 5 hours reached a plateau which still fell only slightly. The good absorbability of the substances can be concluded from the initially very high serum level directly after administration of the substances.
Female Wistar rats of about 150 g body weight are given an intragastral administration of 50 mg/kg of the substance under investigation by means of a stomach probe.
In each case 4 rats are anesthetized after 5; 10; 15; 30; 60; 120; 180 and 240 minutes and exsanguinated via the Vena Cava. The blood is centrifuged immediately and the compound administered is extracted from the serum using ether. After the ether has been evaporated, the residue is taken up in […] of mobile phase. The mobile phase consists of 0.05M phosphoric acid and acetonitrile (4:1). 50 μl of this sample are injected into a high performance liquid chromatography column. Detection is performed under UV of 200 nm with a retention time of 2.2 minutes.

[4] = system: proline hydroxylase; conditions: in words; Tschank, G. et al., 1987; cited from earlier work
[5] = system: proline hydroxylase; conditions: in words; K. Majamaa et al., 1984; cited from earlier work
[6] = system: Clq biosynthesis of macrophages; conditions: in words; W. Muller et al., 1978; cited from earlier work
[7] = 120 minutes, DL = detection limit

Structure (SMILES): COCCNC(=O)c1ccnc(C(=O)NCCOC)c1 [19 (from SA-88-0896), N,N'-bis(2-methoxyethyl)-pyridine-2,4-dicarboxylic acid diamide, reference compound]
Liver hydroxyproline [% inhibition] ([1]; 2 × 25 mg, i.p.): 55 % inhibition | Serum 7s-(IV)-collagen [% inhibition] ([2]; 2 × 25 mg, i.p.): 48 % inhibition

Structure (SMILES): CC(C)OCCCNC(=O)c1ccnc(C(=O)NCCCOC(C)C)c1 [20 (from SA-88-0896), N,N'-bis(3-isopropoxypropyl)-pyridine-2,4-dicarboxylic acid diamide, reference compound]
Liver hydroxyproline [% inhibition] ([1]; 2 × 25 mg, p.o.): 49 % inhibition | Serum 7s-(IV)-collagen [% inhibition] ([2]; 2 × 25 mg, p.o.): 11 % inhibition

Serum level (x, SD) ([3]; 5 minutes): 45.3 ± 15.4 | Serum level (x, SD) ([3]; 10 minutes): 49.8 ± 3.6 | Serum level (x, SD) ([3]; 15 minutes): 39.9 ± 11.0 | Serum level (x, SD) ([3]; 30 minutes): 28.1 ± 3.2 | Serum level (x, SD) ([3]; 60 minutes): 9.4 ± 5.5 | Serum level (x, SD) [3, 7]: 0.3 ± 0.3
Structure (SMILES): COCCCNC(=O)c1ccnc(C(=O)NCCCOC)c1 [Example 1, Pyridine-2,4-dicarboxylic acid bis-N,N'-(methoxypropyl) amide]
Liver hydroxyproline [% inhibition] ([1]; 2 × 2 mg, p.o.): 62 % inhibition | Liver hydroxyproline [% inhibition] ([1]; 2 × 10 mg, p.o.): 90 % inhibition | Serum 7s-(IV)-collagen [% inhibition] ([2]; 2 × 2 mg, p.o.): 28 % inhibition | Serum 7s-(IV)-collagen [% inhibition] ([2]; 2 × 10 mg, p.o.): 67 % inhibition

Serum level (x, SD) ([3]; 5 minutes): 51.4 ± 11.2 | Serum level (x, SD) ([3]; 10 minutes): 39.2 ± 4.0 | Serum level (x, SD) ([3]; 15 minutes): 29.4 ± 6.7 | Serum level (x, SD) ([3]; 30 minutes): 15.2 ± 5.6 | Serum level (x, SD) ([3]; 60 minutes): 1.4 ± 1.0
Structure (SMILES): CCOCCCNC(=O)c1ccnc(C(=O)NCCCOCC)c1 [Example 2, Pyridine-2,4-dicarboxylic acid bis-N,N'-(ethoxypropyl)amide]
Liver hydroxyproline [% inhibition] ([1]; 2 × 2 mg, p.o.): 25 % inhibition | Liver hydroxyproline [% inhibition] ([1]; 2 × 10 mg, p.o.): 60 % inhibition | Serum 7s-(IV)-collagen [% inhibition] ([2]; 2 × 2 mg, p.o.): 2 % inhibition | Serum 7s-(IV)-collagen [% inhibition] ([2]; 2 × 10 mg, p.o.): 35 % inhibition

Serum level (x, SD) ([3]; 5 minutes): 8.9 ± 3.1 | Serum level (x, SD) ([3]; 10 minutes): 11.5 ± 0.6 | Serum level (x, SD) ([3]; 15 minutes): 14.7 ± 1.9 | Serum level (x, SD) ([3]; 30 minutes): 10.7 ± 1.9 | Serum level (x, SD) ([3]; 60 minutes): 11.3 ± 1.5 | Serum level (x, SD) [3, 7]: 5.5 ± 0.9 | Serum level (x, SD) ([3]; 180 minutes, DL = detection limit): 2.9 ± 0.5 | Serum level (x, SD) ([3]; 240 minutes, DL = detection limit): 1.7 ± 0.4
Structure (SMILES): COC(CNC(=O)c1ccnc(C(=O)NCC(OC)OC)c1)OC [Example 3, Pyridine-2,4-dicarboxylic acid bis-N,N'-(2-dimethoxyethyl) amide]

Structure (SMILES): O=C(O)c1ccnc(C(=O)O)c1 [pyridine-2,4-dicarboxylic acid]
Activity as inhibitors in the cell culture [4]: effective as inhibitors only in very high concentrations | Inhibition of proline hydroxylase [5]: inhibited effectively

Structure (SMILES): O=C(O)c1ccc(C(=O)O)nc1 [pyridine-2,5-dicarboxylic acid]
Activity as inhibitors in the cell culture [4]: effective as inhibitors only in very high concentrations | Inhibition of proline hydroxylase [5]: inhibited effectively

Structure (SMILES): c1ccc(-c2ccccn2)nc1 [α, α'-dipyridyl]
Inhibition of Clq biosynthesis of macrophages [6]: leads to an inhibition of the Clq biosynthesis of macrophages
